In publication PMC5354766, “The expression of Nectin-4 on the surface of ovarian cancer cells alters their ability to adhere, migrate, aggregate, and proliferate” (Oncotarget, 2016):
Where no end group is shown, it is not given here.

Experiments:
NIH:OVCAR5 cells [1] = assay: Wound healing (cell migration) assay after mitomycin C treatment; type: cell-based, human; conditions: 25 μg/ml mitomycin C for 3 h
Procedure: Cells were diluted to a concentration of 700,000-10^6 cells/ml in complete media, and 70 μl was plated into each chamber (0.22 cm^2 growth area) of an ibidi® wound-healing culture-insert (ibidi® Verona, WI) in triplicate in a 100 × 20 mm dish (Corning, Falcon, Corning NY). Cells were grown overnight at 37°C in a humidified incubator with 5% CO2 or until the chambers were confluent, prior to removal of the culture insert. Migrating cells were incubated in OptiMEM® containing 10 μM lysophosphatidic acid (LPA Cayman Chemical, Ann Arbor, MI) and photographed initially (t = 0 h), and then up to 48 h with a 4X objective. Image analysis was performed using ImageJ software with the Scratch Assay Analyzer from the MiToBo plug in. Three independent experiments were performed on each cell line.
(§1) Mitomycin C (Sigma-Aldrich, M287) was reconstituted at 0.4 mg/ml in PBS, pH 7.4, according to the supplier's instructions. Prior to spheroid assays, adherent NIH:OVCAR5 cells were pretreated for 3 hours at 37°C, in a tissue culture flask 10 μg/ml mitomycin C diluted in complete RPMI media. Flasks were rinsed with PBS and cells were detached as described for the spheroid assay. For migration assays, cells were plated in ibidi® wound-healing culture-insert incubated overnight, then the media was removed from the culture inserts and replaced with 25 μg/ml mitomycin C in complete RPMI. After 3 hours at 37°C, the culture inserts were removed and the cells were washed with PBS and cell migration was measured as described above.

NIH:OVCAR5 cells [2] = assay: Spheroid formation after mitomycin C treatment; type: cell-based, human; conditions: 10 μg/ml mitomycin C for 3 h, spheroids after 24 h
Procedure: Spheroids were formed from the cell lines described above using the liquid overlay method. One milliliter of a single cell suspension was seeded at a concentration of 50,000 cells/ml in complete media, into 24-well tissue culture plates coated with 0.5% Seakem agarose (in complete media). Plates were incubated at 37°C in a humidified incubator with 5% CO2. At various time points up to 5 days, the plates were removed from the incubator and the spheroids were photographed with a Nikon CoolPix digital camera mounted on an Olympus CK2 inverted microscope with a 4X objective. The size of the spheroids was determined using the measure tool in Adobe Photoshop. The largest spheroids were quantified (20-90 spheroids/well) in a minimum of 8 wells, for a total of >300 spheroids per cell type.
as §1

[3] = test system: NIH:OVCAR5-N4-over cells adhering to recombinant human Nectin-1 extracellular domain; conditions: 1 h
[4] = test system: NIH:OVCAR5-N4-over cells adhering to recombinant human Nectin-1 extracellular domain; assay: Peptide screen in the cell adhesion assay at 150 μg/ml; type: cell-based; conditions: peptide 0.15 mg/ml; 0.5 μg/well Nectin-1 (R&D Systems); relative to DMSO control; Figure 4A
Procedure: Black, clear-bottom 96-well microtiter plates (Corning, Imported Costar, Corning, NY) were coated with various concentrations of recombinant human Nectin-1 extracellular domain (R&D Systems or Acrobiosystems, Newark, DE), recombinant human Nectin-4 extracellular domain (R&D Systems), or bovine serum albumin (BSA; Probumin Diagnostic Grade, MilliPore) diluted in PBS. Covered plates were incubated overnight at 37°C in a humidified incubator. After washing with PBS plus Ca^2+/Mg^2+ containing 2 mg/ml ovalbumin (Sigma-Aldrich), the plates were blocked for 1 h at 37°C with 1% BSA in PBS without Ca^2+/Mg^2+. Confluent monolayers of NIH:OVCAR5 cells or NIH:OVCAR5-N4-over cells were detached with Accutase, and then filtered through a 40 μm cell strainer (BD Biosciences, San Jose, CA) to remove cell aggregates. The single cells were stained with CellTracker Green CMFDA (5-chloromethylfluorescein diacetate; Invitrogen™) according to the manufacturer's protocol. After washing the plate, 30,000 cells were added to each well in 50 μl of RPMI 1640 media containing 2 mg/ml ovalbumin and allowed to adhere for 15-60 min at 37°C. Plates were vigorously washed four times and read in a BioTek Synergy fluorescent microplate reader (BioTek, Winooski, VA). Experiments were conducted in triplicate.
Microtiter plates coated with 0.5 μg/well recombinant human Nectin-1 extracellular domain (R&D Systems) as described above were pre-incubated for 30 min at room temperature with 150 μg/ml Nectin-4 peptides in PBS in triplicate. CMFDA-stained NIH:OVCAR5-N4-over cells were then added to the wells and cell adhesion was quantified after a 30 min incubation as described above. In parallel studies, CMFDA-stained NIH:OVCAR5-N4-over cells were pre-incubated for 30 min at room temperature with 150 μg/ml Nectin-1 peptides in PBS in triplicate, and then the cells and peptides were added to the 96-well plate followed by a 30 min incubation. […] Dose curves were conducted as described above, except the microtiter plates were coated with 0.25 μg/well recombinant human Nectin-1 extracellular domain (Acrobiosystems), and the peptides and scrambled controls were diluted from 0.01-200 μg/ml.

Compound	IC50 (mg/ml), inhibition of binding of OVCAR5-N4-over cells to recombinant Nectin-1 [3] [mg/mL]	Promotion of cell adhesion [4] [fold]	other results
CO[C@@]12[C@H](COC(N)=O)C3=C(C(=O)C(C)=C(N)C3=O)N1C[C@@H]1N[C@@H]12 [mitomycin C]	–	–	Effect on migration in wound healing assay (NIH:OVCAR5 cells [1]; NIH:OVCAR5 cells that over-express Nectin-4, 24 h): almost completely inhibited migration; Exposed wound area covered by migrating cells in 24 h (NIH:OVCAR5 cells [1]; NIH:OVCAR5 control cells, untreated cells completely closed the wound): 50%; Migration (wound area covered) in 24 h (NIH:OVCAR5 cells [1]; Nectin-4 knock-down cells N4-KD-VB3, untreated cells 25%): 16%; Spheroid size with vs without treatment (NIH:OVCAR5 cells [2]; NIH:OVCAR5-N4-KD cells): essentially unchanged; Spheroid size with vs without treatment (NIH:OVCAR5 cells [2]; NIH:OVCAR5-N4-over cells): essentially unchanged; Spheroid size with vs without treatment (NIH:OVCAR5 cells [2]; NIH:OVCAR5 control cells): somewhat smaller
ACIVNYHMDRFKES-NH2 [N1-P17]	0.006	–	–
CLSEGQPPPSYNWT [N4-P21, Synthetic peptide from Nectin-4 extracellular domain, IgC2]	–	~1.5	–
LWHIGREGAMLKCL [N4-P20, Synthetic peptide from Nectin-4 extracellular domain, IgC2]	–	~1.5	–
NWYLQRMDVKLTCK-NH2 [N1-P20]	0.018	–	–
QRITHILHVSFLAE-NH2 [N4-P18]	0.041	–	–
RVDGDTLGFPPLTT [N4-P23, Synthetic peptide from Nectin-4 extracellular domain, IgC2]	–	~1.5	–
TTEHSGIYVCHVSN [N4-P24, Synthetic peptide from Nectin-4 extracellular domain, IgC2]	–	~1.5	–
WTRLDGPLPSGVRV-NH2 [N4-P22]	0.028	–	–
